Data published in PubChem BioAssay (NCI).
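Following 48 hours of exposure in 96-well plates, responses at five concentrations were used to interpolate endpoints linearly. TGI denotes the concentration required for complete inhibition of growth.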

Columns and labels:
Assay in all cases: inhibition of tumour cell growth, NCI panel, 48 h
UACC-257 melanoma = test system: UACC-257 melanoma
RXF 393 renal = test system: RXF 393 renal
IGROV1 ovarian = test system: IGROV1 ovarian
HS 578T breast = test system: HS 578T breast
SK-OV-3 ovarian = test system: SK-OV-3 ovarian
CAKI-1 renal = test system: CAKI-1 renal
SNB-19 CNS = test system: SNB-19 CNS
MDA-MB-435 = test system: MDA-MB-435
EKVX NSCLC = test system: EKVX NSCLC
MALME-3M melanoma = test system: MALME-3M melanoma
M14 melanoma = test system: M14 melanoma
T-47D breast = test system: T-47D breast
K-562 leukemia = test system: K-562 leukemia
HCT-15 colon = test system: HCT-15 colon
OVCAR-4 ovarian = test system: OVCAR-4 ovarian

For CC1(C)[C@H]2Cc3cc(-c4cc5c(cn4)[C@@H]4C[C@H]([C@@H]5[C@@H]5c6cc(-c7cc8c(cn7)[C@@H]7C[C@H](C8)C7(C)C)ncc6[C@@H]6C[C@H]5C6(C)C)C4(C)C)ncc3[C@@H]1C2, the TGI (UACC-257 melanoma) was over 100 µM, the TGI (RXF 393 renal) was over 100 µM and the TGI (IGROV1 ovarian) was over 100 µM. For the same compound, the TGI (HS 578T breast) was over 100 µM, the TGI (SK-OV-3 ovarian) was over 100 µM and the TGI (CAKI-1 renal) was over 100 µM. It also gave a TGI (SNB-19 CNS) of over 100 µM, a TGI (MDA-MB-435) of over 100 µM and a TGI (EKVX NSCLC) of over 100 µM. It also gave a TGI (MALME-3M melanoma) of over 100 µM, a TGI (M14 melanoma) of over 100 µM and a TGI (T-47D breast) of over 100 µM. The TGI (K-562 leukemia) was over 100 µM and the TGI (HCT-15 colon) was over 100 µM.

Compound CN(C)Cc1cc(C(C)(C)C)cc(C2CCCCC2)c1O has a TGI (UACC-257 melanoma) of 21.8 µM, a TGI (RXF 393 renal) of 26.4 µM and a TGI (IGROV1 ovarian) of 34.8 µM. For the same compound, the TGI (HS 578T breast) was 33.9 µM, the TGI (SK-OV-3 ovarian) was 28.7 µM and the TGI (CAKI-1 renal) was 35 µM. It also gave a TGI (SNB-19 CNS) of 25.6 µM, a TGI (MDA-MB-435) of 36.6 µM and a TGI (EKVX NSCLC) of 24.1 µM. For the same compound, the TGI (MALME-3M melanoma) was 17.9 µM, the TGI (M14 melanoma) was over 100 µM and the TGI (T-47D breast) was 21.6 µM. It also gave a TGI (K-562 leukemia) of 24.5 µM, a TGI (HCT-15 colon) of 28.6 µM and a TGI (OVCAR-4 ovarian) of 24.4 µM.

O=C1c2ccccc2C(=O)c2oc(Br)cc21 was tested, and the TGI (UACC-257 melanoma) was 0.784 µM, the TGI (RXF 393 renal) was 2.87 µM and the TGI (IGROV1 ovarian) was 3.08 µM. It also gave a TGI (HS 578T breast) of 0.732 µM, a TGI (SK-OV-3 ovarian) of 6.61 µM and a TGI (CAKI-1 renal) of 3.43 µM. It also gave a TGI (SNB-19 CNS) of 2.87 µM, a TGI (MDA-MB-435) of 0.311 µM and a TGI (EKVX NSCLC) of 4.07 µM. The TGI (MALME-3M melanoma) was 0.274 µM, the TGI (M14 melanoma) was 0.311 µM and the TGI (T-47D breast) was 3.6 µM. For the same compound, the TGI (K-562 leukemia) was 4.77 µM, the TGI (HCT-15 colon) was 1.91 µM and the TGI (OVCAR-4 ovarian) was 3.55 µM.

In the case of COc1ccccc1CNC(=O)[C@H](Cc1ccc(O)cn1)NC(C)=O, the TGI (UACC-257 melanoma) is reported as over 100 µM, the TGI (RXF 393 renal) is reported as over 100 µM and the TGI (IGROV1 ovarian) is reported as over 100 µM. The TGI (HS 578T breast) was over 100 µM, the TGI (SK-OV-3 ovarian) was over 100 µM and the TGI (CAKI-1 renal) was over 100 µM. It also gave a TGI (SNB-19 CNS) of over 100 µM, a TGI (MDA-MB-435) of over 100 µM and a TGI (EKVX NSCLC) of over 100 µM. For the same compound, the TGI (MALME-3M melanoma) was over 100 µM, the TGI (M14 melanoma) was over 100 µM and the TGI (T-47D breast) was over 100 µM. For the same compound, the TGI (K-562 leukemia) was over 100 µM, the TGI (HCT-15 colon) was over 100 µM and the TGI (OVCAR-4 ovarian) was over 100 µM.

O=c1ccn(C2OC(CN(O)CCC3C(CO)OC(n4ccc(=O)[nH]c4=O)C3O)C(O)C2O)c(=O)[nH]1 (stereo unspecified) gave a TGI (UACC-257 melanoma) of over 100 µM, a TGI (RXF 393 renal) of over 100 µM and a TGI (IGROV1 ovarian) of over 100 µM. For the same compound, the TGI (HS 578T breast) was over 100 µM, the TGI (SK-OV-3 ovarian) was over 100 µM and the TGI (CAKI-1 renal) was over 100 µM. For the same compound, the TGI (SNB-19 CNS) was over 100 µM, the TGI (MDA-MB-435) was over 100 µM and the TGI (EKVX NSCLC) was over 100 µM. It also gave a TGI (MALME-3M melanoma) of over 100 µM, a TGI (M14 melanoma) of over 100 µM and a TGI (T-47D breast) of over 100 µM. The TGI (K-562 leukemia) was over 100 µM, the TGI (HCT-15 colon) was over 100 µM and the TGI (OVCAR-4 ovarian) was over 100 µM.

Compound c1ccc(CC2(c3cc4ccccc4[nH]3)OCCO2)nc1 has a TGI (UACC-257 melanoma) of over 100 µM, a TGI (RXF 393 renal) of over 100 µM and a TGI (IGROV1 ovarian) of over 100 µM. For the same compound, the TGI (HS 578T breast) was over 100 µM, the TGI (SK-OV-3 ovarian) was over 100 µM and the TGI (CAKI-1 renal) was over 100 µM. The TGI (SNB-19 CNS) was over 100 µM, the TGI (MDA-MB-435) was over 100 µM and the TGI (EKVX NSCLC) was over 100 µM. The TGI (MALME-3M melanoma) was over 100 µM, the TGI (M14 melanoma) was over 100 µM and the TGI (T-47D breast) was over 100 µM. It also gave a TGI (K-562 leukemia) of over 100 µM and a TGI (HCT-15 colon) of over 100 µM.

CCOP(=O)(OCC)/C(C#N)=C/c1ccnc2ccccc12 gave a TGI (UACC-257 melanoma) of over 100 µM, a TGI (RXF 393 renal) of 79.1 µM and a TGI (IGROV1 ovarian) of over 100 µM. The TGI (HS 578T breast) was 69.6 µM, the TGI (SK-OV-3 ovarian) was 82.7 µM and the TGI (CAKI-1 renal) was 80.3 µM. For the same compound, the TGI (SNB-19 CNS) was 57.5 µM, the TGI (MDA-MB-435) was 31.3 µM and the TGI (EKVX NSCLC) was over 100 µM. It also gave a TGI (MALME-3M melanoma) of over 100 µM, a TGI (M14 melanoma) of 47.6 µM and a TGI (T-47D breast) of over 100 µM. For the same compound, the TGI (HCT-15 colon) was 52.4 µM and the TGI (OVCAR-4 ovarian) was over 100 µM.

In the case of CCOC(=O)c1c(N2CCCC2)[nH]c(=O)c(C(c2cccs2)c2c(O)c(C(=O)OCC)c(N3CCCC3)[nH]c2=O)c1O, the TGI (UACC-257 melanoma) is reported as over 100 µM, the TGI (RXF 393 renal) is reported as over 100 µM and the TGI (HS 578T breast) is reported as over 100 µM. The TGI (SK-OV-3 ovarian) was over 100 µM, the TGI (CAKI-1 renal) was over 100 µM and the TGI (SNB-19 CNS) was over 100 µM. It also gave a TGI (MDA-MB-435) of over 100 µM, a TGI (EKVX NSCLC) of over 100 µM and a TGI (MALME-3M melanoma) of over 100 µM. For the same compound, the TGI (M14 melanoma) was over 100 µM, the TGI (T-47D breast) was over 100 µM and the TGI (K-562 leukemia) was over 100 µM. The TGI (HCT-15 colon) was over 100 µM and the TGI (OVCAR-4 ovarian) was over 100 µM.

Work on CC1=NN(C(=O)CC(=O)Nc2cccc(Cl)c2)C(=O)C1N=Nc1ccc(C(=O)O)cc1 (stereo unspecified) yielded a TGI (UACC-257 melanoma) of over 100 µM, a TGI (RXF 393 renal) of over 100 µM and a TGI (IGROV1 ovarian) of over 100 µM. The TGI (HS 578T breast) was over 100 µM, the TGI (CAKI-1 renal) was over 100 µM and the TGI (SNB-19 CNS) was over 100 µM. For the same compound, the TGI (MDA-MB-435) was over 100 µM, the TGI (EKVX NSCLC) was over 100 µM and the TGI (MALME-3M melanoma) was over 100 µM. It also gave a TGI (M14 melanoma) of over 100 µM, a TGI (T-47D breast) of over 100 µM and a TGI (K-562 leukemia) of over 100 µM. For the same compound, the TGI (HCT-15 colon) was over 100 µM and the TGI (OVCAR-4 ovarian) was over 100 µM.

N#CC(C#N)=Cn1c(=S)[nH]c2ccccc21 was tested, and the TGI (UACC-257 melanoma) was over 100 µM, the TGI (RXF 393 renal) was over 100 µM and the TGI (IGROV1 ovarian) was over 100 µM. The TGI (HS 578T breast) was over 100 µM, the TGI (SK-OV-3 ovarian) was over 100 µM and the TGI (CAKI-1 renal) was over 100 µM. The TGI (SNB-19 CNS) was over 100 µM, the TGI (MDA-MB-435) was over 100 µM and the TGI (EKVX NSCLC) was over 100 µM. The TGI (MALME-3M melanoma) was over 100 µM, the TGI (M14 melanoma) was over 100 µM and the TGI (T-47D breast) was over 100 µM. For the same compound, the TGI (K-562 leukemia) was over 100 µM and the TGI (OVCAR-4 ovarian) was over 100 µM.

O=C1c2ccccc2-c2c1c(-c1cccc(Br)c1)nc1ccc3ccccc3c21 was tested, and the TGI (UACC-257 melanoma) was over 100 µM, the TGI (RXF 393 renal) was over 100 µM and the TGI (HS 578T breast) was over 100 µM. It also gave a TGI (SK-OV-3 ovarian) of over 100 µM, a TGI (CAKI-1 renal) of over 100 µM and a TGI (SNB-19 CNS) of over 100 µM. The TGI (MDA-MB-435) was over 100 µM, the TGI (EKVX NSCLC) was over 100 µM and the TGI (MALME-3M melanoma) was over 100 µM. The TGI (M14 melanoma) was over 100 µM, the TGI (T-47D breast) was over 100 µM and the TGI (K-562 leukemia) was over 100 µM. It also gave a TGI (HCT-15 colon) of over 100 µM and a TGI (OVCAR-4 ovarian) of over 100 µM.

With CC1OC(OC2C(Oc3cc(O)c4c(c3)O[C@H](c3ccc(O)cc3)CC4=O)OC(CO)C(O)C2O)C(O)C(O)C1O (stereo partly specified) the TGI (UACC-257 melanoma) was over 100 µM, the TGI (RXF 393 renal) was over 100 µM and the TGI (IGROV1 ovarian) was over 100 µM. For the same compound, the TGI (HS 578T breast) was over 100 µM, the TGI (SK-OV-3 ovarian) was over 100 µM and the TGI (CAKI-1 renal) was over 100 µM. The TGI (MDA-MB-435) was over 100 µM, the TGI (EKVX NSCLC) was over 100 µM and the TGI (MALME-3M melanoma) was over 100 µM. For the same compound, the TGI (M14 melanoma) was over 100 µM, the TGI (T-47D breast) was over 100 µM and the TGI (HCT-15 colon) was over 100 µM. For the same compound, the TGI (OVCAR-4 ovarian) was over 100 µM.
